Patent publication US11234977B2, “Fused tricyclic pyrazolo-dihydropyrazinyl-pyridone compounds as antivirals” (priority 2017, dated 2022)

Tested on: HBsAg secretion, HepG2-Clone42 cells (Tet-inducible HBV-expressing cell line, HBV ayw strain)
Assay: HBsAg assay (HBsAg ELISA of secreted HBV sAg in HepG2-Clone42 cells)
Assay type: cell-based
Settings: Hepatitis B virus, read-out: HBsAg EC50
Experimental: HepG2-Clone42, a Tet-inducible HBV-expressing cell line with a stably integrated 1.3mer copy of the HBV ayw strain, was generated based on the Tet-inducible HepAD38 cell line with slight modifications. Ladner S K, et al., Antimicrobial Agents and Chemotherapy. 41(8):1715-1720 (1997). HepG2-Clone42 cells were cultured in DMEM/F-12+ Glutamax™ (Life Technologies, Carlsbad, Calif., USA), supplemented with 10% fetal bovine serum (Life Technologies), G-418 (Corning, Manassas, Va., USA) at a final concentration of 0.5 mg/mL, and 5 μg/mL Doxycycline (Sigma, St. Louis, Mo., USA) and maintained in 5% CO2 at 37° C.
HepG2-Clone42 cells were seeded into black clear-bottom 96-well plates at a concentration of 6.0×10^4 cells/well. 24 hours post-seeding, the cells were treated with 200 μl/well of media containing five-fold serial dilutions of compounds in DMSO. DMSO alone was used as the no drug control. The final DMSO concentration in all wells was 0.5%.
The HBsAg ELISA kit (Alpha Diagnostic International, San Antonio, Tex., USE, Catalog #4110) was used to determine the level (semi-quantitative) of secreted HBV sAg. The HBSAg ELISA assay was performed following the manufacturer's protocol as described.
Step 1. Pipet 100 μL each of compound or DMSO treated samples into HBsAg ELISA plates. Seal plates and incubate at room temp for 60 minutes.
Step 2. Aspirate samples and wash three times with Wash Buffer. Dispense 100 μL of antibody-HRP conjugate to each well. Incubate at room temp for 30 minutes.
Step 3. Aspirate samples and wash three times with Wash Buffer. Add 100 μL of TMB Substrate to all wells and incubate 15 minutes at room temp.
Step 4. Dispense 100 μL of Stop Solution to each well. Measure absorbance of ELISA plate at 450 nm.
Dose-response curves were generated and the EC50 value was defined as the compound concentration at which HBsAg secretion was reduced 50% compared to the DMSO control.
EC50 values were determined as follows:
Determine the percent of HBsAg secretion inhibition. Calculate the percent inhibition on of HBsAg secretion inhibition using the following equation: (XC-MB)/(MDMB) • where XC is the absorbance signal from compound-treated well; MB is average absorbance signal (background signal) for column 12 (no cells+HBsAg ELISA sample buffer) and MD is average absorbance signal from DMSO-treated wells. Then calculate EC50 values by non-linear regression using a four parameter curve logistic equation. The curve fit model employed is XLFit Dose Response One Site Model 204: y=(A+((B−A)/(1+(10^((C−x)*D))))) where A is the minimum y value, B is the maximum y value, C is the log EC50 value, and D is the slope factor. +++means<1 nm; ++means≥1 nm and ≤10 nm and +means>10 nm.

SMILES	EC50 [µM]
COCCCOc1nn2c(c1Cl)-c1cc(=O)c(C(=O)O)cn1[C@H](C(C)(C)C)C2 [Compound 1.1, (R)-6-(tert-butyl)-1-chloro-2-(3-methoxypropoxy)-10-oxo-6,10-dihydro-5H-pyrazolo[1,5-a]pyrido[2,1-c]pyrazine-9-carboxylic acid]	< 0.001
COCCCOc1cc2n(n1)C[C@@H](C(C)(C)C)n1cc(C(=O)O)c(=O)cc1-2 [Compound 1.2, (R)-6-(tert-butyl)-2-(3-methoxypropoxy)-10-oxo-6,10-dihydro-5H-pyrazolo[1,5-a]pyrido[2,1-c]pyrazine-9-carboxylic acid]	> 0.01
COCCCOc1nn2c(c1Br)-c1cc(=O)c(C(=O)O)cn1[C@H](C(C)(C)C)C2 [Compound 1.3, (R)-1-bromo-6-(tert-butyl)-2-(3-methoxypropoxy)-10-oxo-6,10-dihydro-5H-pyrazolo[1,5-a]pyrido[2,1-c]pyrazine-9-carboxylic acid]	0.001 to 0.01
CC(C)c1cc2n(n1)CC(C(C)(C)C)n1cc(C(=O)O)c(=O)cc1-2 (centres unmarked) [Compound 2.1, 6-(tert-butyl)-2-isopropyl-10-oxo-6,10-dihydro-5H-pyrazolo[1,5-a]pyrido[2,1-c]pyrazine-9-carboxylic acid]	> 0.01
CC(C)(C)[C@@H]1Cn2nc(-c3ccccc3)c(Cl)c2-c2cc(=O)c(C(=O)O)cn21 [Compound 3.1, (R)-6-(tert-butyl)-1-chloro-10-oxo-2-phenyl-5,6-dihydro-10H-pyrazolo[1,5-a]pyrido[2,1-c]pyrazine-9-carboxylic acid]	< 0.001
COc1ccccc1-c1nn2c(c1Cl)-c1cc(=O)c(C(=O)O)cn1[C@H](C(C)(C)C)C2 [Compound 3.2, (R)-6-(tert-butyl)-1-chloro-2-(2-methoxyphenyl)-10-oxo-5,6-dihydro-10H-pyrazolo[1,5-a]pyrido[2,1-c]pyrazine-9-carboxylic acid]	> 0.01
CC(C)[C@@H]1Cn2nc(-c3ccccc3)cc2-c2cc(=O)c(C(=O)O)cn21 [Compound 3.3, (R)-6-isopropyl-10-oxo-2-phenyl-5,6-dihydro-10H-pyrazolo[1,5-a]pyrido[2,1-c]pyrazine-9-carboxylic acid]	> 0.01
CC(C)[C@@H]1Cn2nc(-c3ccccc3)c(Cl)c2-c2cc(=O)c(C(=O)O)cn21 [Compound 3.4, (R)-1-chloro-6-isopropyl-10-oxo-2-phenyl-6,10-dihydro-5H-pyrazolo[1,5-a]pyrido[2,1-c]pyrazine-9-carboxylic acid]	> 0.01
